pIC50: −log10 of the molar value.
Target: T1, GST-tagged ROR gamma ligand binding domain (LBD) (Homo sapiens, UniProt P51449)
T1 construct: purchased Invitrogen
T1 sequence (P51449 269-508 limits assumed): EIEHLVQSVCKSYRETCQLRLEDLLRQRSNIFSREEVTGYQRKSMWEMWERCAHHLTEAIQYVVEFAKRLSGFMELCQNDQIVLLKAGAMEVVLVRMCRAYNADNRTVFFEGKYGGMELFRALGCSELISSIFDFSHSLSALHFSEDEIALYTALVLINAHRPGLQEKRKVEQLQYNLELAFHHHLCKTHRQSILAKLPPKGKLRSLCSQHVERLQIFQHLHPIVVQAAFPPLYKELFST
Test: TR-FRET assay for ROR gamma (LanthaScreen co-activator peptide recruitment)
Format: biochemical
Details: for inhibition at 1 µM: compound concentration 1 μM; for inhibition at 1 µM / inhibition at 10 µM: TR-FRET ratio 520/495, percent of control; for inhibition at 10 µM: compound concentration 10 μM; for pIC50: from dose response curve, nonlinear regression, read-out: IC50 range
Outline: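 Antagonist-mode co-activator recruitment: 10 nM GST-RORγ LBD with compound (4% DMSO final) in 25 mM HEPES pH 7.4, 100 mM NaCl, 5 mM DTT, 0.01% BSA, 1 h at 22° C.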

Structure (SMILES) | inhibition at 1 µM | inhibition at 10 µM | pIC50
CCC(F)(F)c1ccc(CC(=O)Nc2ccc(-c3nccnc3-c3ccc(F)cc3C)cc2)cc1 [Example 44, 2-(4-(1,1-Difluoropropyl)phenyl)-N-(4-(3-(4-fluoro-2-methylphenyl)pyrazin-2-yl)phenyl)acetamide] | 76.9% | 84.1% | > 7.30
CCC(F)(F)c1ccc(CC(=O)Nc2ccc(-c3nccnc3-c3ccccc3)cc2)cc1 [Example 15, 2-(4-(1,1-Difluoropropyl)phenyl)-N-(4-(3-phenylpyrazin-2-yl)phenyl)acetamide] | 72.2% | 80.6% | 6.30 to 7.00
CCc1ccccc1-c1nccnc1-c1ccc(NC(=O)Cc2ccc(C(F)(F)[C@@H](C)O)cc2)cc1 [Example 53, (R)-2-(4-(1,1-difluoro-2-hydroxypropyl)phenyl)-N-(4-(3-(2-ethylphenyl)pyrazin-2-yl)phenyl)acetamide] | 70.5% | 77% | > 7.30
CCC(F)(F)c1ccc(CC(=O)Nc2ccc(-c3nccnc3-c3ccc(OC)cc3)cc2)cc1 [Example 27, 2-(4-(1,1-Difluoropropyl)phenyl)-N-(4-(3-(4-methoxyphenyl)pyrazin-2-yl)phenyl)acetamide] | 78.6% | 83.5% | > 7.30
CCC(F)(F)c1ccc(CC(=O)Nc2ccc(-c3nccnc3O[C@H](C)c3ccccc3)cc2)cc1 [Example 79, (R)-2-(4-(1,1-Difluoropropyl)phenyl)-N-(4-(3-(1-phenylethoxy)pyrazin-2-yl)phenyl)acetamide] | 69.5% | 85.8% | 6.30 to 7.00
CCC(F)(F)c1ccc(CC(=O)Nc2ccc(-c3ncccc3-c3ccc(Cl)cc3)cc2)cc1 [Example 7, N-(4-(3-(4-Chlorophenyl)pyridin-2-yl)phenyl)-2-(4-(1,1-difluoropropyl)phenyl)acetamide] | 83% | 86.2% | > 7.30
CCC(F)(F)c1ccc(CC(=O)Nc2ccc(-c3nccnc3N[C@@H](C)c3ccc(F)cc3C)cc2)cc1 [Example 67, (S)-2-(4-(1,1-Difluoropropyl)phenyl)-N-(4-(3-((1-(4-fluoro-2-methylphenyl)ethyl)amino)pyrazin-2-yl)phenyl)acetamide] | 87.9% | 92.4% | > 7.30
CCC(F)(F)c1ccc(CC(=O)Nc2ccc(-c3nccnc3O[C@@H](C)c3ccccc3)cc2)cc1 [Example 80, (S)-2-(4-(1,1-Difluoropropyl)phenyl)-N-(4-(3-(1-phenylethoxy)pyrazin-2-yl)phenyl)acetamide] | 69.5% | 86.3% | 6.30 to 7.00
CC(O)C(F)(F)c1ccc(CC(=O)Nc2ccc(-c3nccnc3OCc3ccccc3)cc2)cc1 (stereo not drawn) [Example 78, N-(4-(3-(Benzyloxy)pyrazin-2-yl)phenyl)-2-(4-(1,1-difluoro-2-hydroxypropyl)phenyl)acetamide] | 89.6% | 93.9% | > 7.30
CCC(F)(F)c1ccc(CC(=O)Nc2ccc(-c3nccnc3N3CCN(C4COC4)CC3)cc2)cc1 [Example 99, 2-(4-(1,1-Difluoropropyl)phenyl)-N-(4-(3-(4-(oxetan-3-yl)piperazin-1-yl)pyrazin-2-yl)phenyl)acetamide] | 79.2% | 91.9% | 7.00 to 7.30
CCC(F)(F)c1ccc(CC(=O)Nc2ccc(-c3nccnc3N[C@@H](C)c3ccccc3Cl)cc2)cc1 [Example 66, (S)-N-(4-(3-((1-(2-Chlorophenyl)ethyl)amino)pyrazin-2-yl)phenyl)-2-(4-(1,1-difluoropropyl)phenyl)acetamide] | 88.4% | 90.2% | > 7.30

Source: US10344024B2, “Compounds as ROR gamma modulators” (Glenmark Pharmaceuticals S.A., priority 2015, dated 2019)
